Assays:
Assay in all cases: relative viability (nuclei count vs DMSO), 5 days (fraction); higher = more cells survive
Pictilisib + Tozasertib = compound: CS(=O)(=O)N1CCN(Cc2cc3nc(-c4cccc5[nH]ncc45)nc(N4CCOCC4)c3s2)CC1 [Pictilisib] + Cc1cc(Nc2cc(N3CCN(C)CC3)nc(Sc3ccc(NC(=O)C4CC4)cc3)n2)n[nH]1 [Tozasertib] (partner 0.1 µM)
Procedure, shortened: (§1)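 The day after seeding in 1536-well plates, lung cancer cell lines were treated by pin tool with a single drug, or with a fixed anchor-drug dose together with five library-drug doses (not always all listed) in √10 steps. After 5 days, a combined fix-and-stain solution (final 0.05% Triton X-100, 1% formaldehyde, 1 ug/ml Hoechst) was added. Nuclei counted on 4× images gave relative viability as treated counts over vehicle counts, reported as the median of duplicate plates.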

MK-2206 + Luminespib = compound: NC1(c2ccc(-c3nc4ccn5c(=O)[nH]nc5c4cc3-c3ccccc3)cc2)CCC1 [MK-2206] + CCNC(=O)c1noc(-c2cc(C(C)C)c(O)cc2O)c1-c1ccc(CN2CCOCC2)cc1 [Luminespib] (partner 0.01 µM)
Procedure, shortened: as §1

MK-2206 + Dasatinib = compound: NC1(c2ccc(-c3nc4ccn5c(=O)[nH]nc5c4cc3-c3ccccc3)cc2)CCC1 [MK-2206] + Cc1nc(Nc2ncc(C(=O)Nc3c(C)cccc3Cl)s2)cc(N2CCN(CCO)CC2)n1 [Dasatinib] (partner 0.075 µM)
Procedure, shortened: as §1

Pictilisib + Olaparib = compound: CS(=O)(=O)N1CCN(Cc2cc3nc(-c4cccc5[nH]ncc45)nc(N4CCOCC4)c3s2)CC1 [Pictilisib] + O=C(c1cc(Cc2n[nH]c(=O)c3ccccc23)ccc1F)N1CCN(C(=O)C2CC2)CC1 [Olaparib] (partner 8 µM)
Procedure, shortened: as §1

MK-2206 + Alpelisib = compound: NC1(c2ccc(-c3nc4ccn5c(=O)[nH]nc5c4cc3-c3ccccc3)cc2)CCC1 [MK-2206] + Cc1nc(NC(=O)N2CCC[C@H]2C(N)=O)sc1-c1ccnc(C(C)(C)C(F)(F)F)c1 [Alpelisib] (partner 2 µM)
Procedure, shortened: as §1

Cell Line | relative viability (Pictilisib + Tozasertib; first compound 0.02 µM) | relative viability (Pictilisib + Tozasertib; first compound 0.06325 µM) | relative viability (Pictilisib + Tozasertib; first compound 0.6325 µM) | relative viability (Pictilisib + Tozasertib; first compound 2 µM) | relative viability (MK-2206 + Luminespib; first compound 0.01 µM) | relative viability (MK-2206 + Luminespib; first compound 0.03162 µM) | relative viability (MK-2206 + Luminespib; first compound 0.3162 µM) | relative viability (MK-2206 + Luminespib; first compound 1 µM) | relative viability (MK-2206 + Dasatinib; first compound 0.01 µM) | relative viability (MK-2206 + Dasatinib; first compound 0.03162 µM) | relative viability (MK-2206 + Dasatinib; first compound 0.3162 µM) | relative viability (MK-2206 + Dasatinib; first compound 1 µM) | relative viability (Pictilisib + Olaparib; first compound 0.02 µM) | relative viability (Pictilisib + Olaparib; first compound 0.06325 µM) | relative viability (Pictilisib + Olaparib; first compound 0.6325 µM) | relative viability (Pictilisib + Olaparib; first compound 2 µM) | relative viability (MK-2206 + Alpelisib; first compound 0.01 µM) | relative viability (MK-2206 + Alpelisib; first compound 0.03162 µM) | relative viability (MK-2206 + Alpelisib; first compound 0.3162 µM) | relative viability (MK-2206 + Alpelisib; first compound 1 µM)
ABC-1 | 0.187 | 0.135 | 0.158 | 0.168 | 0.601 | 0.334 | 0.481 | 0.391 | 0.499 | 0.534 | 0.388 | 0.399 | 0.781 | 0.721 | 0.79 | 0.721 | 0.964 | 0.915 | 0.848 | 0.812
EPLC-272H | 0.26 | 0.231 | 0.206 | 0.179 | 0.585 | 0.263 | 0.338 | 0.323 | 0.486 | 0.333 | 0.256 | 0.306 | 0.773 | 0.731 | 0.36 | 0.241 | 0.993 | 0.851 | – | 0.929
NCI-H2009 | 0.719 | 0.736 | 0.75 | 0.461 | 1.01 | 0.992 | 1.06 | 1.01 | 0.296 | 0.309 | 0.287 | 0.325 | 0.743 | 0.634 | 0.592 | 0.422 | 1.16 | 1.17 | 1.14 | 1.12
NCI-H661 | 0.345 | 0.354 | 0.4 | 0.396 | 0.93 | 0.884 | 0.968 | 0.947 | 0.898 | 0.907 | 0.856 | 0.949 | 0.85 | 0.746 | 0.815 | 0.563 | 0.745 | 1.07 | 0.688 | 0.473
NCI-H520 | 0.413 | 0.412 | 0.234 | 0.232 | 0.213 | 0.214 | 0.203 | 0.207 | 0.179 | 0.178 | 0.189 | 0.18 | 0.387 | 0.323 | 0.186 | 0.118 | 0.939 | 0.819 | 0.561 | 0.355
NCI-H2405 | 0.764 | 0.725 | 0.663 | 0.348 | 0.713 | 0.853 | 0.532 | 0.559 | 0.208 | 0.241 | 0.182 | 0.231 | 0.871 | 0.867 | 0.735 | 0.422 | 0.762 | 0.877 | 0.728 | 0.673
LCLC-97TM1 | 0.251 | 0.211 | 0.0992 | 0.0885 | 0.873 | 0.775 | 0.618 | 0.616 | 0.847 | 0.858 | 0.893 | 0.898 | 0.446 | 0.379 | 0.289 | 0.112 | 0.316 | 0.261 | 0.185 | 0.204
NCI-H727 | 0.614 | 0.542 | 0.568 | 0.486 | 0.328 | 0.306 | 0.337 | 0.345 | 0.408 | 0.328 | 0.394 | 0.433 | 0.796 | 0.801 | 0.72 | 0.548 | 0.636 | 0.571 | 0.404 | 0.456
NCI-H2228 | 0.272 | 0.211 | 0.169 | 0.0908 | 0.167 | 0.188 | 0.14 | 0.145 | 0.533 | 0.485 | 0.355 | 0.266 | 0.715 | 0.734 | 0.45 | 0.209 | 0.625 | 0.621 | 0.288 | 0.262
LK-2 | 0.209 | 0.173 | 0.154 | 0.158 | 0.173 | 0.199 | 0.212 | 0.17 | 0.231 | 0.299 | 0.327 | 0.19 | 0.523 | 0.588 | 0.485 | 0.304 | 0.977 | 1.42 | 1.13 | 1.06
PC-3 [JPC-3] | 0.84 | 0.893 | 0.736 | 0.784 | 0.601 | 0.652 | 0.627 | 0.705 | 0.968 | 1.01 | 1.06 | 0.934 | 1.24 | 1.31 | 1.21 | 0.754 | 0.985 | 1.01 | 1.02 | 1.04
NCI-H596 | 0.822 | 0.901 | 0.591 | 0.356 | 0.984 | 0.919 | 0.889 | 0.737 | 0.669 | 0.662 | 0.577 | 0.505 | 0.621 | 0.642 | 0.567 | 0.338 | 0.518 | 0.623 | 0.401 | 0.473
NCI-H460 | 0.411 | 0.401 | 0.28 | 0.0523 | 0.035 | 0.0282 | 0.0298 | 0.024 | 0.417 | 0.579 | 0.37 | 0.338 | 0.425 | 0.436 | 0.395 | 0.173 | 0.481 | 0.419 | 0.256 | 0.231
NCI-H647 | 0.323 | 0.338 | 0.291 | 0.0558 | 0.0812 | 0.159 | 0.156 | 0.126 | 0.17 | 0.188 | 0.154 | 0.156 | 0.661 | 0.659 | 0.411 | 0.219 | 1.39 | 1.24 | 1.07 | 0.851
NCI-H838 | 0.266 | 0.218 | 0.242 | 0.149 | 0.288 | 0.303 | 0.244 | 0.282 | 0.282 | 0.279 | 0.288 | 0.268 | 0.775 | 0.718 | 0.603 | 0.293 | 1.02 | 1.02 | 1.01 | 0.943
PC-14 | 0.61 | 0.583 | 0.641 | 0.46 | 0.181 | 0.214 | 0.143 | 0.159 | 0.289 | 0.346 | 0.27 | 0.294 | 0.385 | 0.39 | 0.442 | 0.341 | 0.852 | 0.98 | 0.74 | 0.881

— the supplement of paper PMC10307832
